Measured values reported in PubChem BioAssay AID256 (DTP/NCI, 2004).
Values joined by “and” are separate entries in the source; they are usually repeats but may differ in a detail not shown here. Equal entries are not always repeated. Toxic doses and inconclusive results are not listed.

Tested on: CD2F1 mice, L1210 leukemia ip, survival T/C
Experiment: NCI In Vivo Anticancer Drug Screen. Data for tumor model L1210 Leukemia (intraperitoneal) in CD2F1 (CDF1) mice
Settings: higher = longer survival
Outline: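 Compound-dosed mice with transplantable tumor versus matched vehicle controls; endpoint ratio T/C reported.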

[1] = endpoint: mean survival time, dose: 50.0 mg/kg/injection, schedule: Q04DX003 (ip), vehicle: saline with Tween-80
[2] = endpoint: mean survival time, dose: 1.56 mg/kg/injection, schedule: Q01DX009 (ip), vehicle: Klucel (hydroxypropylcellulose) (HPC)
[3] = endpoint: mean survival time, dose: 3.12 mg/kg/injection, schedule: Q01DX009 (ip), vehicle: Klucel (hydroxypropylcellulose) (HPC)
[4] = endpoint: mean survival time, dose: 6.25 mg/kg/injection, schedule: Q01DX009 (ip), vehicle: Klucel (hydroxypropylcellulose) (HPC)
[5] = endpoint: mean survival time, dose: 12.5 mg/kg/injection, schedule: Q01DX009 (ip), vehicle: Klucel (hydroxypropylcellulose) (HPC)
[6] = endpoint: mean survival time, dose: 50.0 mg/kg/injection, schedule: Q01DX009 (ip), vehicle: saline with Tween-80
[7] = endpoint: mean survival time, dose: 100.0 mg/kg/injection, schedule: Q01DX001 (ip), vehicle: saline with Tween-80
[8] = endpoint: mean survival time, dose: 100.0 mg/kg/injection, schedule: Q01DX009 (ip), vehicle: saline with Tween-80
[9] = endpoint: mean survival time, dose: 200.0 mg/kg/injection, schedule: Q01DX001 (ip), vehicle: saline with Tween-80
[10] = endpoint: mean survival time, dose: 200.0 mg/kg/injection, schedule: Q01DX009 (ip), vehicle: saline with Tween-80
[11] = endpoint: mean survival time, dose: 400.0 mg/kg/injection, schedule: Q01DX009 (ip), vehicle: saline with Tween-80
[12] = endpoint: mean survival time, dose: 100.0 mg/kg/injection, schedule: Q04DX003 (ip), vehicle: saline with Tween-80
[13] = endpoint: mean survival time, dose: 200.0 mg/kg/injection, schedule: Q04DX003 (ip), vehicle: saline with Tween-80
[14] = endpoint: mean survival time, dose: 400.0 mg/kg/injection, schedule: Q04DX003 (ip), vehicle: saline with Tween-80
[15] = endpoint: mean survival time, dose: 50.0 mg/kg/injection, schedule: Q01DX009 (ip), vehicle: Klucel (hydroxypropylcellulose) (HPC)
[16] = endpoint: mean survival time, dose: 100.0 mg/kg/injection, schedule: Q01DX009 (ip), vehicle: Klucel (hydroxypropylcellulose) (HPC)

For `Nc1[nH]c(=S)[nH]c(=O)c1NC(=O)C1CC1`, the T/C (endpoint: mean survival time, dose: 100.0 mg/kg/injection, schedule: Q01DX009 (ip), vehicle: saline sonified) was 98 % of control, the T/C (endpoint: mean survival time, dose: 200.0 mg/kg/injection, schedule: Q01DX009 (ip), vehicle: saline sonified) was 92 % of control and the T/C (endpoint: mean survival time, dose: 400.0 mg/kg/injection, schedule: Q01DX009 (ip), vehicle: saline sonified) was 98 % of control.
For `CCn1c(N)c2c(ncn2Cc2ccccc2)nc1=S`, the T/C (endpoint: mean survival time, dose: 12.5 mg/kg/injection, schedule: Q01DX001 (ip), vehicle: acetone) was 100 % of control, the T/C (endpoint: mean survival time, dose: 12.5 mg/kg/injection, schedule: Q04DX003 (ip), vehicle: saline with Tween-80) was 98 % of control and the T/C (endpoint: mean survival time, dose: 25.0 mg/kg/injection, schedule: Q01DX001 (ip), vehicle: acetone) was 100 % of control. For the same molecule, the T/C (endpoint: mean survival time, dose: 25.0 mg/kg/injection, schedule: Q04DX003 (ip), vehicle: saline with Tween-80) was 98 % of control, the T/C (endpoint: mean survival time, dose: 50.0 mg/kg/injection, schedule: Q01DX001 (ip), vehicle: acetone) was 103 % of control and the T/C [1] was 89 % of control.
With `CCOC(=O)Nc1cc2c(c(N)n1)N=C(c1ccc(-c3ccccc3)cc1)CN2` the T/C (endpoint: mean survival time, dose: 0.78 mg/kg/injection, schedule: Q01DX009 (ip), vehicle: Klucel (hydroxypropylcellulose) (HPC)) was 106 % of control, the T/C [2] was 112 % of control and the T/C [3] was 114 % of control and 111 % of control. For the same molecule, the T/C [4] was 109 % of control, the T/C (endpoint: mean survival time, dose: 12.5 mg/kg/injection, schedule: Q01DX001 (ip), vehicle: Klucel (hydroxypropylcellulose) (HPC)) was 115 % of control and the T/C [5] was 89 % of control. The T/C (endpoint: mean survival time, dose: 50.0 mg/kg/injection, schedule: Q01DX001 (ip), vehicle: Klucel (hydroxypropylcellulose) (HPC)) was 121 % of control.
In the case of `OC1CCCCC1CCl` (stereo unspecified), the T/C (endpoint: mean survival time, dose: 50.0 mg/kg/injection, schedule: Q01DX001 (ip), vehicle: carboxymethylcellulose (CMC)) is reported as 103 % of control, the T/C (endpoint: mean survival time, dose: 100.0 mg/kg/injection, schedule: Q01DX001 (ip), vehicle: carboxymethylcellulose (CMC)) is reported as 97 % of control and the T/C (endpoint: mean survival time, dose: 200.0 mg/kg/injection, schedule: Q01DX001 (ip), vehicle: carboxymethylcellulose (CMC)) is reported as 97 % of control. The T/C (endpoint: mean survival time, dose: 400.0 mg/kg/injection, schedule: Q01DX001 (ip), vehicle: carboxymethylcellulose (CMC)) was 103 % of control.
With `NC(=S)N/N=C\c1nccc2c(C(F)(F)C(F)(F)C(F)(F)F)cccc12` the T/C (endpoint: mean survival time, dose: 100.0 mg/kg/injection, schedule: Q04DX002 (ip), vehicle: saline with Tween-80) was 93 % of control, the T/C (endpoint: mean survival time, dose: 200.0 mg/kg/injection, schedule: Q04DX002 (ip), vehicle: saline with Tween-80) was 96 % of control and the T/C (endpoint: mean survival time, dose: 400.0 mg/kg/injection, schedule: Q04DX002 (ip), vehicle: saline with Tween-80) was 96 % of control.
In the case of `Cc1ccccc1N=Nc1ccc(O)cc1`, the T/C [6] is reported as 105 % of control, the T/C [7] is reported as 103 % of control and the T/C [8] is reported as 100 % of control. The T/C [9] was 92 % of control and the T/C [10] was 103 % of control.
In the case of `O=C1C2C(C(=O)N1c1ccc(F)c([N+](=O)[O-])c1)C1(Cl)C(Cl)=C(Cl)C2(Cl)C1(Cl)Cl` (stereo unspecified), the T/C [6] is reported as 108 % of control, the T/C [8] is reported as 116 % of control and the T/C [10] is reported as 111 % of control.
For `CCOC(=O)c1c2cccccc-2c(C#N)c1O`, the T/C [7] was 93 % of control, the T/C [9] was 99 % of control and the T/C (endpoint: mean survival time, dose: 400.0 mg/kg/injection, schedule: Q01DX001 (ip), vehicle: saline with Tween-80) was 96 % of control.
With `O=C(NC(CO)C(O)c1ccc([N+](=O)[O-])cc1)C(Cl)Cl` (stereo unspecified) the T/C [8] was 96 % of control, the T/C [10] was 104 % of control and the T/C [11] was 110 % of control.
For `CCC1(C)CCC2C(=CCC3C(C)(C(=O)O)CCCC23C)C1` (stereo unspecified), the T/C [12] was 103 % of control, the T/C [13] was 88 % of control and the T/C [14] was 89 % of control.
With `O=c1cn[nH]c2c(F)cccc12` the T/C (endpoint: mean survival time, dose: 100.0 mg/kg/injection, schedule: Q01DX001 (ip), vehicle: other) was 97 % of control, the T/C (endpoint: mean survival time, dose: 200.0 mg/kg/injection, schedule: Q01DX001 (ip), vehicle: other) was 104 % of control and the T/C (endpoint: mean survival time, dose: 400.0 mg/kg/injection, schedule: Q01DX001 (ip), vehicle: other) was 98 % of control.
For `CCCN(C)C(=O)N(CCCl)N=O`, the T/C (endpoint: mean survival time, dose: 39.0 mg/kg/injection, schedule: Q01DX001 (ip), vehicle: other) was 306 % of control, the T/C (endpoint: mean survival time, dose: 62.5 mg/kg/injection, schedule: Q01DX001 (ip), vehicle: other) was 197 % of control and the T/C (endpoint: mean survival time, dose: 78.0 mg/kg/injection, schedule: Q01DX001 (ip), vehicle: other) was 448 % of control. The T/C (endpoint: mean survival time, dose: 125.0 mg/kg/injection, schedule: Q01DX001 (ip), vehicle: other) was 320 % of control and the T/C (endpoint: mean survival time, dose: 250.0 mg/kg/injection, schedule: Q01DX001 (ip), vehicle: other) was 102 % of control.
With `CC1(C)C2CCC(I)(C2)C1O` (stereo unspecified) the T/C [1] was 101 % of control, the T/C [12] was 101 % of control and the T/C [13] was 101 % of control.
`CCOC(=O)N1C2CCC(C2)N1C(=O)OCC` was tested, and the T/C [12] was 100 % of control, the T/C [13] was 100 % of control and the T/C [14] was 87 % of control.
`Cc1ccc([N+](=O)[O-])cc1NC(=O)NNC(=O)CNC(=O)Nc1cccc(C(F)(F)F)c1` was tested, and the T/C [8] was 92 % of control, the T/C [10] was 89 % of control and the T/C [11] was 96 % of control.
With `CC(=O)OCC1OC(OC(C)=O)C(NC(=O)Nc2cccc(N)c2)C(OC(C)=O)C1OC(C)=O` (stereo unspecified) the T/C (endpoint: mean survival time, dose: 5.0 mg/kg/injection, schedule: Q04DX003 (ip), vehicle: water) was 102 % of control, the T/C (endpoint: mean survival time, dose: 10.0 mg/kg/injection, schedule: Q04DX003 (ip), vehicle: water) was 96 % of control and the T/C (endpoint: mean survival time, dose: 20.0 mg/kg/injection, schedule: Q04DX003 (ip), vehicle: water) was 96 % of control. The T/C (endpoint: mean survival time, dose: 40.0 mg/kg/injection, schedule: Q04DX003 (ip), vehicle: water) was 96 % of control and the T/C (endpoint: mean survival time, dose: 80.0 mg/kg/injection, schedule: Q04DX003 (ip), vehicle: water) was 98 % of control.
With `Cc1ccc(OCC2CO2)cc1` (stereo unspecified) the T/C (endpoint: mean survival time, dose: 100.0 mg/kg/injection, schedule: Q01DX001 (ip), vehicle: saline) was 104 % of control, the T/C (endpoint: mean survival time, dose: 200.0 mg/kg/injection, schedule: Q01DX001 (ip), vehicle: saline) was 95 % of control and the T/C (endpoint: mean survival time, dose: 400.0 mg/kg/injection, schedule: Q01DX001 (ip), vehicle: saline) was 102 % of control.
With `COc1ccc(NCCOc2ccccc2Br)cc1` the T/C (endpoint: mean survival time, dose: 100.0 mg/kg/injection, schedule: Q04DX003 (ip), vehicle: other) was 97 % of control, the T/C (endpoint: mean survival time, dose: 200.0 mg/kg/injection, schedule: Q04DX003 (ip), vehicle: other) was 101 % of control and the T/C (endpoint: mean survival time, dose: 400.0 mg/kg/injection, schedule: Q04DX003 (ip), vehicle: other) was 95 % of control.
For `O=[N+]([O-])O.S=C([SH2+])[n+]1ccccc1.S=C([SH2+])[n+]1ccccc1.[NH-]C1CCCCC1[NH-].[Pt+4]`, the T/C (endpoint: median survival time, dose: 3.12 mg/kg/injection, schedule: Q04DX003 (ip), vehicle: saline) was 101 % of control, the T/C (endpoint: median survival time, dose: 6.25 mg/kg/injection, schedule: Q04DX003 (ip), vehicle: saline) was 109 % of control and the T/C (endpoint: median survival time, dose: 12.5 mg/kg/injection, schedule: Q04DX003 (ip), vehicle: saline) was 100 % of control. The T/C (endpoint: median survival time, dose: 25.0 mg/kg/injection, schedule: Q04DX003 (ip), vehicle: saline) was 90 % of control, the T/C (endpoint: median survival time, dose: 50.0 mg/kg/injection, schedule: Q04DX003 (ip), vehicle: saline) was 95 % of control and the T/C (endpoint: median survival time, dose: 100.0 mg/kg/injection, schedule: Q04DX003 (ip), vehicle: saline) was 106 % of control. The T/C (endpoint: median survival time, dose: 200.0 mg/kg/injection, schedule: Q04DX003 (ip), vehicle: saline) was 109 % of control.
With `COc1ccc(NC(=O)NCc2cccc(Cl)c2)cc1` the T/C [15] was 102 % of control, the T/C [16] was 114 % of control and the T/C (endpoint: mean survival time, dose: 200.0 mg/kg/injection, schedule: Q01DX009 (ip), vehicle: Klucel (hydroxypropylcellulose) (HPC)) was 117 % of control.
In the case of `FC(F)(F)c1cccc(C(OCCN2CCCC2)c2ccccc2)c1` (stereo unspecified), the T/C (endpoint: mean survival time, dose: 6.25 mg/kg/injection, schedule: Q01DX009 (ip), vehicle: saline) is reported as 105 % of control, the T/C (endpoint: mean survival time, dose: 12.5 mg/kg/injection, schedule: Q01DX009 (ip), vehicle: saline) is reported as 105 % of control and the T/C (endpoint: mean survival time, dose: 25.0 mg/kg/injection, schedule: Q01DX009 (ip), vehicle: saline) is reported as 109 % of control.
`CCCC(=O)OCc1cc(=O)n(C)c2c3c4c(cc12)c(C)cc(=O)n4CO3` was tested, and the T/C [2] was 97 % of control, the T/C [3] was 106 % of control and 112 % of control and the T/C [4] was 116 % of control and 105 % of control and 109 % of control. For the same molecule, the T/C [5] was 113 % of control and 107 % of control and 110 % of control, the T/C (endpoint: mean survival time, dose: 25.0 mg/kg/injection, schedule: Q01DX009 (ip), vehicle: Klucel (hydroxypropylcellulose) (HPC)) was 117 % of control and 119 % of control and 124 % of control and the T/C [15] was 118 % of control and 124 % of control. For the same molecule, the T/C [16] was 96 % of control.
For `COc1ccc(C(O)c2ccccn2)cc1` (stereo unspecified), the T/C [8] was 103 % of control, the T/C [10] was 97 % of control and the T/C [11] was 90 % of control.
